Patent US9078902B2, “Triazine derivatives and their therapeutical applications” (NantBioScience, Inc., priority 2010, dated 2015)

Experiments:
Format in all cases: biochemical
[1] = molecular target: T1, TrkA Kinase (Homo sapiens, UniProt P04629); experiment: TrkA kinase assay (KinaseProfiler / Kinase Hotspot)
T1 construct: purchased Millipore (KinaseProfiler Service); also Reaction Biology Corp. (Kinase HotSpot)
Description: (§1) This example illustrated c-Src kinase, Aurora-A kinase, Flt3 kinase, Ret kinase and TrkA Kinase Assays of selected Compounds from this invention (referred to Daniele Fancelli et al, J. Med. Chem., 2006, 49 (24), pp 7247-7251). The KinaseProfiler™ Service Assay Protocols (Millipore) were used to test the kinase inhibiting activity of novel compounds from this invention. To do this, the buffer composition was as: 20 mM MOPS, 1 mM EDTA, 0.01% Brij-35, 5% Glycerol, 0.1% p-mercaptoethanol, 1 mg/mL BSA. Test compounds were initially dissolved in DMSO at the desired concentration, then serially diluted to the kinase assay buffer. In a final reaction volume of […], Aurora-A(h) (5-10 mU) is incubated with 8 mM MOPS pH 7.0, 0.2 mM EDTA, […] LRRASLG (Kemptide), 10 mM MgAcetate and [y33P-ATP]. The reaction was initiated by the addition of the MgATP mix. After incubation for 40 minute at room temperature, the reaction was stopped by addition of […] of a 3% phosphoric acid solution. […] of the reaction was then spotted onto a P30 filtermat and washed three times for 5 minutes in 50 mM phosphoric acid and once in methanol prior to drying and scintillation counting. Wells containing substrate but no kinase and wells containing a phosphopeptide control were used to set 0% and 100% phosphorylation value, repectively.
(§2) Also Kinase Hotspot SM kinase assay was used to test the compounds for IC50 or % inhibitions (Reaction Biology Corp.). Inhibitor IC50 values were determined by titration of compound at the optimal kinase concentration (Kinase EC50).

[2] = molecular target: T2, Aurora-A kinase (Homo sapiens, UniProt O14965); experiment: Aurora-A kinase assay (KinaseProfiler / Kinase Hotspot); settings: read-out: % Inhibition Auroro-A
T2 construct: purchased Millipore (KinaseProfiler Service); also Reaction Biology Corp. (Kinase HotSpot)
T2 sequence (O14965 1-403): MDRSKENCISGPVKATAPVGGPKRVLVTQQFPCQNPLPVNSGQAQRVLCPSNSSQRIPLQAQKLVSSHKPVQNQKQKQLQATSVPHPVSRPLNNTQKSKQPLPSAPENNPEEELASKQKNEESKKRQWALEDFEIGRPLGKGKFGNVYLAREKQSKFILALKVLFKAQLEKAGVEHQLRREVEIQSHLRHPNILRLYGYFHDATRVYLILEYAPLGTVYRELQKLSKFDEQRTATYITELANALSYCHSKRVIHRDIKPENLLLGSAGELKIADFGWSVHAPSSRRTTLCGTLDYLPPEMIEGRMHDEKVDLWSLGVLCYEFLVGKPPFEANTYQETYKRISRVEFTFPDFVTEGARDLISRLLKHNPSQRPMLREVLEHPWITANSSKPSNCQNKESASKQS
Description: as §1, §2

[3] = molecular target: T3, c-Src kinase (Homo sapiens, UniProt P12931); experiment: c-Src kinase assay (KinaseProfiler / Kinase Hotspot); settings: read-out: % Inhibition cSrc
T3 construct: purchased Millipore (KinaseProfiler Service); also Reaction Biology Corp. (Kinase HotSpot)
Description: as §1, §2

[4] = molecular target: T4, Ret kinase (Homo sapiens, UniProt P07949); experiment: Ret kinase assay (KinaseProfiler / Kinase Hotspot)
T4 construct: purchased Millipore (KinaseProfiler Service); also Reaction Biology Corp. (Kinase HotSpot)
Description: as §1, §2

[5] = molecular target: T5, Flt3 kinase (Homo sapiens, UniProt P36888); experiment: Flt3 kinase assay (KinaseProfiler / Kinase Hotspot)
T5 construct: purchased Millipore (KinaseProfiler Service); also Reaction Biology Corp. (Kinase HotSpot)
T5 sequence (P36888 27-993): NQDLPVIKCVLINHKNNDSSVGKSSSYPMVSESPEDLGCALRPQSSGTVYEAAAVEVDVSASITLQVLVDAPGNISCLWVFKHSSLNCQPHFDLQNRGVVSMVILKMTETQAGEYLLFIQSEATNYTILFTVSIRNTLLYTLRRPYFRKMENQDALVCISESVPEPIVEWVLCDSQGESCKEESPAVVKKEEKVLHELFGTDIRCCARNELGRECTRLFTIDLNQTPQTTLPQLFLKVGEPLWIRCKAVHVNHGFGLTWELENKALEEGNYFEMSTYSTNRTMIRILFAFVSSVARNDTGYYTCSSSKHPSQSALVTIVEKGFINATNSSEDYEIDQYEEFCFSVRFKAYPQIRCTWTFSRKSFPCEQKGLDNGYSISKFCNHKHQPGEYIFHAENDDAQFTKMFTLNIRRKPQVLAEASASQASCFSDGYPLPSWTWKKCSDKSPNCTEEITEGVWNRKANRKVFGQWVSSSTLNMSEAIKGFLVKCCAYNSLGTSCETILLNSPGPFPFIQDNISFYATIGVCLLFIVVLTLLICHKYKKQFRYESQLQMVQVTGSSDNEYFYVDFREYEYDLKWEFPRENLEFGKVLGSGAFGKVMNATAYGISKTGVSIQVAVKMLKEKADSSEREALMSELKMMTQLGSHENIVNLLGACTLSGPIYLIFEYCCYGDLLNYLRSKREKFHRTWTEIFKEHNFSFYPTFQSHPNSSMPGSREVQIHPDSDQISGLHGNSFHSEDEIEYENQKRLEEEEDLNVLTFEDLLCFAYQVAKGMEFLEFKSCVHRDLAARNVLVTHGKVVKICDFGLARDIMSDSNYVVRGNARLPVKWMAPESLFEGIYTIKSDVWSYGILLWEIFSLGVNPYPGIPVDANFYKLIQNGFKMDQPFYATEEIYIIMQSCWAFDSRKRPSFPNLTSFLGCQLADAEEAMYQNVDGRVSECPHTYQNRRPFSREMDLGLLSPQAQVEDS
Description: as §1, §2

T1 sequence (P04629 33-796): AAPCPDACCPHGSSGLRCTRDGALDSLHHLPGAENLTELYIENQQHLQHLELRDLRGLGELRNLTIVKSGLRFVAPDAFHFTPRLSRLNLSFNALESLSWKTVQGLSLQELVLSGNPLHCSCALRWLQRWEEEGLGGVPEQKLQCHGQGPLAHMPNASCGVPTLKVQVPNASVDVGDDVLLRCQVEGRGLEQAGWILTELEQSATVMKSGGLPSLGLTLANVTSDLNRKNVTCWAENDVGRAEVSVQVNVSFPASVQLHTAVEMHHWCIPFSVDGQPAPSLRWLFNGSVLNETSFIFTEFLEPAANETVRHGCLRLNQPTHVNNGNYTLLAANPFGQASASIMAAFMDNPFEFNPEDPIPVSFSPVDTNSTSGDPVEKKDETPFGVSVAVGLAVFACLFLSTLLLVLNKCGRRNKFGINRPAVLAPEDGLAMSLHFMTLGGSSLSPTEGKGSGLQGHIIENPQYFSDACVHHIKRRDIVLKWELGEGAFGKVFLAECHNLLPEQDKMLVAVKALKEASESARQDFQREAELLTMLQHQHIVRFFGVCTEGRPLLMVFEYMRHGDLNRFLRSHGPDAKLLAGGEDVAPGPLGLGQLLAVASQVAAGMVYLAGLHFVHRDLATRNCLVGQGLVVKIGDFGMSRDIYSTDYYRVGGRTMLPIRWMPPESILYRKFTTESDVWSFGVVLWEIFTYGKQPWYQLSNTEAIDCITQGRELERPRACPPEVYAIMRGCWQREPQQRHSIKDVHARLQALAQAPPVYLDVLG
T3 sequence (P12931 whole entry): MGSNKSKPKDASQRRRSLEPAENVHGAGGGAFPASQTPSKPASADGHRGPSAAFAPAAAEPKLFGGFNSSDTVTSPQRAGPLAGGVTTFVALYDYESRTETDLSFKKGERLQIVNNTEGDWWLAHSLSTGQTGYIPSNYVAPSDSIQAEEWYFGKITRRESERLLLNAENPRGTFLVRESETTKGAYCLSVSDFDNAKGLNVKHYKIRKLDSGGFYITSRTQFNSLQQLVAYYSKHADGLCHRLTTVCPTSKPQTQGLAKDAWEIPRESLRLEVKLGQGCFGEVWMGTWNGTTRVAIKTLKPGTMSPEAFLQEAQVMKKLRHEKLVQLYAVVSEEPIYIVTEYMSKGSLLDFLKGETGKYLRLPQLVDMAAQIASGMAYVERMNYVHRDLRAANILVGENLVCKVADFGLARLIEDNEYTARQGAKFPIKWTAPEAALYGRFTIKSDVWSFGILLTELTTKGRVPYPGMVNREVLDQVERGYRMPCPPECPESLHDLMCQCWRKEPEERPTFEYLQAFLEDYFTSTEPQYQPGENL
T4 sequence (P07949 29-1114): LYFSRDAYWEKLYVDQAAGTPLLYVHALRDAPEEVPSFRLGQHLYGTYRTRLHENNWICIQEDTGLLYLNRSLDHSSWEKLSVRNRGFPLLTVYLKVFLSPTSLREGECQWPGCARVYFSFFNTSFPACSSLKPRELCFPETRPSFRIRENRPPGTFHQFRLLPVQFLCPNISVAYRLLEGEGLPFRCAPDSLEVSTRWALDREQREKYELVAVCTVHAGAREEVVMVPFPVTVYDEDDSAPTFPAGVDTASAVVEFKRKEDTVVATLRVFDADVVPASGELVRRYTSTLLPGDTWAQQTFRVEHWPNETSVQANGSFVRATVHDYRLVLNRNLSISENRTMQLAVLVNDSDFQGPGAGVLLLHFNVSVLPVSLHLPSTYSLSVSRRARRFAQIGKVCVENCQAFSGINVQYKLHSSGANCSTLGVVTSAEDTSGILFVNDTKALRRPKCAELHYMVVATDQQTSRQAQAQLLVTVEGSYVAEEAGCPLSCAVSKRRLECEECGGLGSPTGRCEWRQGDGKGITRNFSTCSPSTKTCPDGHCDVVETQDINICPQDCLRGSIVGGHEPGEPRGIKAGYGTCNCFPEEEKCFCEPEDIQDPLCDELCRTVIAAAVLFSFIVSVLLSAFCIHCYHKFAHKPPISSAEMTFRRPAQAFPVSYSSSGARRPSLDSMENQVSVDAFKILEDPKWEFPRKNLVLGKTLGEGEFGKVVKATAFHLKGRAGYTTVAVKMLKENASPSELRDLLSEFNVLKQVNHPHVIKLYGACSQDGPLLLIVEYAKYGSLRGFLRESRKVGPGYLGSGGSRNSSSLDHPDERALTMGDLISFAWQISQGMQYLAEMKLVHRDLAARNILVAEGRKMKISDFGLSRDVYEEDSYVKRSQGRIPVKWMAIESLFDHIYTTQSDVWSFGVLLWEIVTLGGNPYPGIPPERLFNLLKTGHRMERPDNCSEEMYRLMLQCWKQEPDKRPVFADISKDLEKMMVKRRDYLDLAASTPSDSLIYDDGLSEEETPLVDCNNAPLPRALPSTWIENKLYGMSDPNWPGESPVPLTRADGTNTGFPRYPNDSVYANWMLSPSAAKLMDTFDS

| Structure (SMILES) | inhibition at 1 µM [1] | inhibition at 1 µM [2] | inhibition at 1 µM [3] | inhibition at 1 µM [4] | inhibition at 1 µM [5] |
| --- | --- | --- | --- | --- | --- |
| CN1CCN(c2nc(Nc3cc(-c4ccco4)[nH]n3)nc(Sc3ccc(NC(=O)C4CC4)cc3)n2)CC1 [Example 5] | > 90% | 50 to 90% | < 50% | 50 to 90% | > 90% |
| CN1CCN(c2nc(Nc3cc(-c4cccs4)[nH]n3)nc(Sc3ccc(NC(=O)C4CC4)cc3)n2)CC1 [Example 6] | > 90% | 50 to 90% | < 50% | > 90% |  |
| CCc1nc(Nc2cc(-c3ccco3)[nH]n2)nc(Sc2ccc(NC(=O)C3CC3)cc2)n1 [Example 8] | 50 to 90% | < 50% | < 50% | 50 to 90% |  |
| CN1CCN(c2nc(Nc3cc(-c4ccco4)[nH]n3)nc(Sc3ccccc3)n2)CC1 [Example 9] | > 90% | 50 to 90% | < 50% | > 90% |  |
| CN1CCN(c2nc(Nc3cc(-c4ccco4)[nH]n3)nc(Sc3ccc(N)cc3)n2)CC1 [Example 10] | > 90% | 50 to 90% | < 50% | > 90% |  |
| CN1CCN(c2nc(Nc3ncc(-c4ccccc4)s3)nc(Sc3ccccc3)n2)CC1 [Example 14] | > 90% | < 50% | < 50% | < 50% |  |
| CN1CCN(c2nc(Nc3cc(-c4ccco4)[nH]n3)nc(Sc3ccc(O)cc3)n2)CC1 [Example 15] | > 90% | 50 to 90% | 50 to 90% | > 90% |  |
| CN1CCN(c2nc(Nc3cc(-c4ccco4)[nH]n3)nc(Sc3ccc(Cl)cc3)n2)CC1 [Example 16] | > 90% | 50 to 90% | < 50% | 50 to 90% | > 90% |
| CN1CCN(c2nc(Nc3cc(-c4ccco4)[nH]n3)nc(Sc3cccc(Cl)c3)n2)CC1 [Example 17] | > 90% | 50 to 90% | < 50% | 50 to 90% |  |
| CN1CCN(c2nc(Nc3cc(-c4ccco4)[nH]n3)nc(Sc3ccccc3Cl)n2)CC1 [Example 18] | > 90% | 50 to 90% | < 50% | 50 to 90% |  |
| CN1CCN(c2nc(Nc3cc(-c4ccco4)[nH]n3)nc(Sc3ccc(C(F)(F)F)cc3)n2)CC1 [Example 19] | > 90% | 50 to 90% | < 50% | 50 to 90% |  |
| CN1CCN(c2nc(Nc3ccccc3)nc(Nc3cc(-c4ccco4)[nH]n3)n2)CC1 [Example 20] |  | 50 to 90% | 50 to 90% | > 90% |  |
| CN1CCN(c2nc(Nc3ncc(-c4cccs4)s3)nc(Sc3ccccc3)n2)CC1 [Example 21] | < 50% | < 50% | < 50% | < 50% | < 50% |
| CN1CCN(c2nc(Nc3cc(-c4ccco4)[nH]n3)nc(Sc3cc(Cl)cc(Cl)c3)n2)CC1 [Example 22] | > 90% | 50 to 90% | < 50% | 50 to 90% |  |
| CN1CCN(c2nc(Nc3cc(-c4ccco4)[nH]n3)nc(Sc3ccc(Cl)c(Cl)c3)n2)CC1 [Example 23] |  | 50 to 90% | < 50% | 50 to 90% |  |
| COc1ccc(Sc2nc(Nc3cc(-c4ccco4)[nH]n3)nc(N3CCN(C)CC3)n2)cc1 [Example 24] | > 90% | 50 to 90% | 50 to 90% | > 90% |  |
| CN1CCN(c2nc(Nc3cc(-c4ccco4)[nH]n3)nc(Sc3ccc(OC(F)(F)F)cc3)n2)CC1 [Example 25] | > 90% | < 50% | < 50% | < 50% |  |
| CN1CCN(c2nc(Nc3cc(-c4ccco4)[nH]n3)nc(Oc3ccccc3)n2)CC1 [Example 26] | > 90% | 50 to 90% | 50 to 90% | > 90% |  |
| CN1CCN(c2nc(Nc3cc(-c4ccco4)[nH]n3)nc(N(C)c3ccccc3)n2)CC1 [Example 27] | > 90% | 50 to 90% | 50 to 90% | > 90% |  |
| CN1CCN(c2nc(Nc3cc(-c4ccccc4)[nH]n3)nc(Sc3ccc(NC(=O)C4CC4)cc3)n2)CC1 [Example 28] | > 90% | < 50% | < 50% | > 90% |  |
| CN1CCN(c2nc(Nc3cc(-c4ccco4)[nH]n3)nc(Sc3cccc(NC(=O)C4CC4)c3)n2)CC1 [Example 30] | > 90% | < 50% | 50 to 90% | > 90% |  |
| CN1CCN(c2nc(Nc3ncc(-c4cccs4)s3)nc(Sc3cccc(NC(=O)C4CC4)c3)n2)CC1 [Example 31] | < 50% | < 50% | < 50% | < 50% |  |
